{"source": "patent US9447148B2", "about": "“Melanocortin-1 receptor-specific cyclic peptides” (Palatin Technologies, Inc., priority 2009, dated 2016)", "key": {"hMCR-1": {"target": "hMCR-1 (Homo sapiens (Human), UniProt Q01726)", "sequence (Q01726 whole entry)": "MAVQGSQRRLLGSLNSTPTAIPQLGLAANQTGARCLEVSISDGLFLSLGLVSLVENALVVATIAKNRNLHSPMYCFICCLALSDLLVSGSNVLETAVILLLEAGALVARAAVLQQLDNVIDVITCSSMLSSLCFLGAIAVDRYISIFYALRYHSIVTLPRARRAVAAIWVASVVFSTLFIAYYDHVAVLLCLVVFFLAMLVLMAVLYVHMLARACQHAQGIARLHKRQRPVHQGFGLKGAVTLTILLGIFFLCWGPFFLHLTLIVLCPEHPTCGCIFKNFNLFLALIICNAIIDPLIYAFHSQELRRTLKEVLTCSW", "experiment": "Assay for agonist activity: intracellular cAMP accumulation in HBL human melanoma cells", "assay_type": "cell-based", "details": "for EC50: HBL cells expressing hMCR-1, averaged, read-out: MC-1 EC50 (average; cAMP HBL)", "protocol": "Confluent HBL cells that express hMCR-1 or HEK-293 cells that express recombinant hMCR-4 were detached from culture plates by incubation in enzyme-free cell dissociation buffer. Dispersed cells were suspended in Earle's Balanced Salt Solution containing 10 mM HEPES (pH 7.5), 1 mM MgCl2, 1 mM glutamine, 0.5% albumin and 0.3 mM 3-isobutyl-1-methyl-xanthine (IBMX), a phosphodiesterase inhibitor. The cells were plated in 96-well plates at a density of 0.4×10^5 cells per well for HBL cells and 0.5×10^5 cells per well for HEK-293 cells and pre-incubated for 10 minutes. Cells were exposed for 15 minutes at 37° C. to peptides of the present invention dissolved in DMSO (final DMSO concentration of 1%) at a concentration range of 0.05-5000 nM in a total assay volume of 200 μL. […] Data analysis was performed by nonlinear regression analysis with Graph-Pad Prism® software.\n(§1) Peptides of the following structures were synthesized and averaged MCR-1 and MCR-4 Ki values were determined as indicated. […] All results are expressed in nM except for Emax values, which are percentage values. Peptides with the captioned primary sequence were synthesized and purified as described in Section 5 above, with the resulting peptide having the structure depicted."}, "hMCR-1a": {"target": "hMCR-1a (Homo sapiens (Human), UniProt Q01726)", "sequence (Q01726 whole entry)": "as above", "experiment": "Competitive inhibition binding assay using [I125]-NDP-α-MSH, hMCR-1a", "details": "membrane homogenates of HEK-293 cells, human recombinant receptor, averaged, read-out: MC-1 Ki (average)", "protocol": "(§2) A competitive inhibition binding assay was performed using membrane homogenates prepared from HEK-293 cells that express recombinant hMCR-1a or hMCR-4 (in each instance where the h prefix refers to human), or alternatively membrane homogenates from B16-F10 mouse melanoma cells containing endogenous murine MCR-1. In the examples that follow, all MCR-1 and MCR-4 values are for human recombinant receptors, unless otherwise noted. Assays were performed in 96 well polypropylene round-bottom plates (VWR catalog number 12777-030). […] After incubation for 90 minutes at 37° C., the assay mixture was filtered onto GF/B Unifilter plates (Perkin-Elmer catalog number 6005177) and washed with 3 mL of ice-cold buffer per well. Filters were air dried and 35 μL of scintillation cocktail added to each well. Plates were counted in a Microbeta counter for bound radioactivity. […] Each assay was conducted in duplicate and the actual mean values are described, with results less than 0% reported as 0%. Ki values for peptides of the present invention were determined using Graph-Pad Prism® curve-fitting software.\nas §1"}, "hMCR-4": {"target": "hMCR-4 (Homo sapiens (Human), UniProt P32245)", "sequence (P32245 whole entry)": "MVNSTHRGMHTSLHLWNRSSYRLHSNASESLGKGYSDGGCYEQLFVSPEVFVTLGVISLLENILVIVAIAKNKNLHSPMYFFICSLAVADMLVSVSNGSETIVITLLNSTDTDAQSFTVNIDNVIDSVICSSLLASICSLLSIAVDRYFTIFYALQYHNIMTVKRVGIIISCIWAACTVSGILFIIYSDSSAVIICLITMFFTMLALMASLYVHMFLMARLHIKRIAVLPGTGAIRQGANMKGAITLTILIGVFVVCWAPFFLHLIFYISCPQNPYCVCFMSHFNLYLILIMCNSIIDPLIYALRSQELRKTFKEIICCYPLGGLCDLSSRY", "experiment": "Competitive inhibition binding assay using [I125]-NDP-α-MSH, hMCR-4", "details": "membrane homogenates of HEK-293 cells, human recombinant receptor, averaged, read-out: MC-4 Ki (average)", "protocol": "as §2, §1"}}, "note": "Bridge positions count the residues as written; N and C are the ends. Square brackets hold non-standard residues; d marks the D form. Peptide text beside a SMILES is read from it. dPhe(3,4-F2) = N[C@H](Cc1ccc(F)c(F)c1)C(=O)O; dPhe(3-Cl) = N[C@H](Cc1cccc(Cl)c1)C(=O)O; dPhe(4-Cl) = N[C@H](Cc1ccc(Cl)cc1)C(=O)O; dPhe(2-Cl) = N[C@H](Cc1ccccc1Cl)C(=O)O; dPhe(4-F) = N[C@H](Cc1ccc(F)cc1)C(=O)O; dPhe(2-F) = N[C@H](Cc1ccccc1F)C(=O)O; Nle = CCCC[C@H](N)C(=O)O; Orn = NCCC[C@H](N)C(=O)O; Dab = NCC[C@H](N)C(=O)O"}
{"smiles": "CCCC[C@H](NC(C)=O)C(=O)N[C@H]1CCC(=O)NC[C@@H](C(=O)N[C@@H](Cc2c[nH]c3ccccc23)C(=O)O)NC(=O)[C@H](CCCNC(=N)N)NC(=O)[C@@H](Cc2ccccc2)NC(=O)[C@H](Cc2c[nH]cn2)NC1=O", "note": "[Example 9.26, Ac-Nle-cyclo(Glu-His-D-Phe-Arg-Dap)-Trp-OH]", "values": [{"measurement": "Emax", "setting": "hMCR-1; HBL, HBL cells, maximum efficacy compared to reference agonist NDP-α-MSH, read-out: MC-1 Emax (average; cAMP HBL)", "value": 81, "unit": "%"}, {"measurement": "Ki", "setting": "hMCR-1a", "value": 0.001, "unit": "µM"}, {"measurement": "Ki", "setting": "hMCR-4", "value": 4.7, "unit": "µM"}]}
{"smiles": "CCCC[C@H](NC(C)=O)C(=O)N[C@H]1CCC(=O)NCC[C@@H](C(N)=O)NC(=O)[C@H](CCCNC(=N)N)NC(=O)[C@@H](Cc2ccccc2)NC(=O)[C@H](Cc2c[nH]cn2)NC1=O", "note": "[Example 9.32, Ac-Nle-cyclo(Glu-His-D-Phe-Arg-Dab)-NH2] (Ac-[Nle]EH[dF]R[Dab]-NH2; lactam 2-6)", "values": [{"measurement": "EC50", "setting": "hMCR-1", "value": 0.00032, "unit": "µM"}, {"measurement": "Ki", "setting": "hMCR-1a", "value": 0.007, "unit": "µM"}, {"measurement": "Ki", "setting": "hMCR-4", "value": 10, "unit": "µM"}]}
{"smiles": "CCCC[C@H](NC(C)=O)C(=O)N[C@H]1CCC(=O)NCC[C@@H](C(N)=O)NC(=O)[C@H](C)NC(=O)[C@@H](Cc2ccccc2)NC(=O)[C@H](Cc2c[nH]cn2)NC1=O", "note": "[Example 9.33, Ac-Nle-cyclo(Glu-His-D-Phe-Ala-Dab)-NH2] (Ac-[Nle]EH[dF]A[Dab]-NH2; lactam 2-6)", "values": [{"measurement": "EC50", "setting": "hMCR-1", "value": 0.044, "unit": "µM"}, {"measurement": "Ki", "setting": "hMCR-1a", "value": 0.645, "unit": "µM"}, {"measurement": "Ki", "setting": "hMCR-4", "value": 10, "unit": "µM"}]}
{"smiles": "CCCC[C@H](NC(C)=O)C(=O)N[C@H]1CCC(=O)NCC[C@@H](C(=O)N[C@@H](Cc2c[nH]c3ccccc23)C(N)=O)NC(=O)CNC(=O)[C@@H](Cc2ccccc2)NC(=O)[C@H](Cc2c[nH]cn2)NC1=O", "note": "[Example 9.34, Ac-Nle-cyclo(Glu-His-D-Phe-Gly-Dab)-Trp-NH2] (Ac-[Nle]EH[dF]G[Dab]W-NH2; lactam 2-6)", "values": [{"measurement": "EC50", "setting": "hMCR-1", "value": 0.004, "unit": "µM"}, {"measurement": "Ki", "setting": "hMCR-1a", "value": 0.009, "unit": "µM"}, {"measurement": "Ki", "setting": "hMCR-4", "value": 10, "unit": "µM"}]}
{"smiles": "CCCC[C@H](NC(C)=O)C(=O)N[C@H]1CCC(=O)NCC[C@@H](C(=O)N[C@@H](Cc2c[nH]c3ccccc23)C(N)=O)NC(=O)[C@H](C)NC(=O)[C@@H](Cc2ccccc2)NC(=O)[C@H](Cc2c[nH]cn2)NC1=O", "note": "[Example 9.35, Ac-Nle-cyclo(Glu-His-D-Phe-Ala-Dab)-Trp-NH2] (Ac-[Nle]EH[dF]A[Dab]W-NH2; lactam 2-6)", "values": [{"measurement": "EC50", "setting": "hMCR-1", "value": 0.000115, "unit": "µM"}, {"measurement": "Ki", "setting": "hMCR-1a", "value": 0.0008, "unit": "µM"}, {"measurement": "Ki", "setting": "hMCR-4", "value": 10, "unit": "µM"}]}
{"smiles": "CCCC[C@H](NC(C)=O)C(=O)N[C@H]1CCC(=O)NCC[C@@H](C(=O)N[C@@H](CCCCN)C(N)=O)NC(=O)[C@H](CCCNC(=N)N)NC(=O)[C@@H](Cc2ccccc2)NC(=O)[C@H](Cc2c[nH]cn2)NC1=O", "note": "[Example 9.39, Ac-Nle-cyclo(Glu-His-D-Phe-Arg-Dab)-Lys-NH2] (Ac-[Nle]EH[dF]R[Dab]K-NH2; lactam 2-6)", "values": [{"measurement": "EC50", "setting": "hMCR-1", "value": 0.000175, "unit": "µM"}, {"measurement": "Ki", "setting": "hMCR-1a", "value": 0.002, "unit": "µM"}, {"measurement": "Ki", "setting": "hMCR-4", "value": 7.38, "unit": "µM"}]}
{"smiles": "CCCC[C@H](NC(C)=O)C(=O)N[C@H]1CCC(=O)NCC[C@@H](C(N)=O)NC(=O)[C@H](CCCNC(=N)N)NC(=O)[C@@H](Cc2ccccc2Cl)NC(=O)[C@H](CCCN)NC1=O", "note": "[Example 9.57, Ac-Nle-cyclo(Glu-Orn-D-Phe(2-Cl)-Arg-Dab)-NH2] (Ac-[Nle]E[Orn][dPhe(2-Cl)]R[Dab]-NH2; lactam 2-6)", "values": [{"measurement": "EC50", "setting": "hMCR-1", "value": 0.001, "unit": "µM"}, {"measurement": "Ki", "setting": "hMCR-1a", "value": 0.03, "unit": "µM"}, {"measurement": "Ki", "setting": "hMCR-4", "value": 10, "unit": "µM"}]}
{"smiles": "CCCC[C@H](NC(C)=O)C(=O)N[C@H]1CCC(=O)NCC[C@@H](C(N)=O)NC(=O)[C@H](CCCNC(=N)N)NC(=O)[C@@H](Cc2cccc(Cl)c2)NC(=O)[C@H](CCCN)NC1=O", "note": "[Example 9.58, Ac-Nle-cyclo(Glu-Orn-D-Phe(3-Cl)-Arg-Dab)-NH2] (Ac-[Nle]E[Orn][dPhe(3-Cl)]R[Dab]-NH2; lactam 2-6)", "values": [{"measurement": "EC50", "setting": "hMCR-1", "value": 0.002, "unit": "µM"}, {"measurement": "Ki", "setting": "hMCR-1a", "value": 0.035, "unit": "µM"}, {"measurement": "Ki", "setting": "hMCR-4", "value": 10, "unit": "µM"}]}
{"smiles": "CCCC[C@H](NC(C)=O)C(=O)N[C@H]1CCC(=O)NCC[C@@H](C(N)=O)NC(=O)[C@H](CCCNC(=N)N)NC(=O)[C@@H](Cc2ccc(Cl)cc2)NC(=O)[C@H](CCCN)NC1=O", "note": "[Example 9.59, Ac-Nle-cyclo(Glu-Orn-D-Phe(4-Cl)-Arg-Dab)-NH2] (Ac-[Nle]E[Orn][dPhe(4-Cl)]R[Dab]-NH2; lactam 2-6)", "values": [{"measurement": "EC50", "setting": "hMCR-1", "value": 0.0001, "unit": "µM"}, {"measurement": "Ki", "setting": "hMCR-1a", "value": 0.002, "unit": "µM"}, {"measurement": "Ki", "setting": "hMCR-4", "value": 1.24, "unit": "µM"}]}
{"smiles": "CCCC[C@H](NC(C)=O)C(=O)N[C@H]1CCC(=O)NCC[C@@H](C(N)=O)NC(=O)[C@H](CCCNC(=N)N)NC(=O)[C@@H](Cc2ccccc2F)NC(=O)[C@H](CCCN)NC1=O", "note": "[Example 9.60, Ac-Nle-cyclo(Glu-Orn-D-Phe(2-F)-Arg-Dab)-NH2] (Ac-[Nle]E[Orn][dPhe(2-F)]R[Dab]-NH2; lactam 2-6)", "values": [{"measurement": "EC50", "setting": "hMCR-1", "value": 0.0008, "unit": "µM"}, {"measurement": "Ki", "setting": "hMCR-1a", "value": 0.018, "unit": "µM"}, {"measurement": "Ki", "setting": "hMCR-4", "value": 10, "unit": "µM"}]}
{"smiles": "CCCC[C@H](NC(C)=O)C(=O)N[C@H]1CCC(=O)NCC[C@@H](C(N)=O)NC(=O)[C@H](CCCNC(=N)N)NC(=O)[C@@H](Cc2ccc(F)cc2)NC(=O)[C@H](CCCN)NC1=O", "note": "[Example 9.61, Ac-Nle-cyclo(Glu-Orn-D-Phe(4-F)-Arg-Dab)-NH2] (Ac-[Nle]E[Orn][dPhe(4-F)]R[Dab]-NH2; lactam 2-6)", "values": [{"measurement": "EC50", "setting": "hMCR-1", "value": 0.001, "unit": "µM"}, {"measurement": "Ki", "setting": "hMCR-1a", "value": 0.02, "unit": "µM"}, {"measurement": "Ki", "setting": "hMCR-4", "value": 10, "unit": "µM"}]}
{"smiles": "CCCC[C@H](NC(C)=O)C(=O)N[C@H]1CCC(=O)NCC[C@@H](C(N)=O)NC(=O)[C@H](CCCNC(=N)N)NC(=O)[C@@H](Cc2ccc(F)c(F)c2)NC(=O)[C@H](CCCN)NC1=O", "note": "[Example 9.62, Ac-Nle-cyclo(Glu-Orn-D-Phe(3,4-F)-Arg-Dab)-NH2] (Ac-[Nle]E[Orn][dPhe(3,4-F2)]R[Dab]-NH2; lactam 2-6)", "values": [{"measurement": "EC50", "setting": "hMCR-1", "value": 0.001, "unit": "µM"}, {"measurement": "Ki", "setting": "hMCR-1a", "value": 0.04, "unit": "µM"}, {"measurement": "Ki", "setting": "hMCR-4", "value": 10, "unit": "µM"}]}
{"smiles": "CCCC[C@H](NC(C)=O)C(=O)N[C@H]1CCC(=O)NCC[C@@H](C(N)=O)NC(=O)[C@H](CCCNC(=N)N)NC(=O)[C@@H](Cc2ccc(OC)cc2)NC(=O)[C@H](CCCN)NC1=O", "note": "[Example 9.64, Ac-Nle-cyclo(Glu-Orn-D-Phe(4-OMe)-Arg-Dab)-NH2] (Ac-[Nle]E[Orn][dY](Me)R[Dab]-NH2; lactam 2-6)", "values": [{"measurement": "EC50", "setting": "hMCR-1", "value": 0.00012, "unit": "µM"}, {"measurement": "Ki", "setting": "hMCR-1a", "value": 0.002, "unit": "µM"}, {"measurement": "Ki", "setting": "hMCR-4", "value": 10, "unit": "µM"}]}
